From patent publication US9675591B2, “Methods for treating seizure disorders and pain” (THE REGENTS OF THE UNIVERSITY OF CALIFORNIA, priority 2013, dated 2017) come the findings set out here.

The subject of test [1] is MES-induced seizures. The test is described as follows: MES seizure test, CF-1 mice, compounds given i.p. as solution. The format is in vivo. How it is done:
MES assays were performed at the Department of Neurology at the University of California with CF-1 mice. This study was approved by the University of California, Davis, Animal Use and Care Committee and conducted in accordance with the guidelines of Animal Use and Care of the National Institutes of Health and the University of California. For these assays, stock solutions of SKA-19 (5 mg/ml) were prepared in 5% CremophorEL (Sigma-Aldrich, St. Louis, Mo., USA) and 95% saline, diluted further with saline, and SKA-19 was administered i.p. in a volume of 10 ml/kg body weight. Animals were subjected to a 0.2-s, 60-Hz electrical stimulus through corneal electrodes (5 mm diameter stainless steel balls). The electroshock unit was adjusted to deliver a constant current of 50 mA. Immediately before stimulation, the corneal electrodes were wetted with saline to provide good electrical contact. Animals failing to show tonic hindlimb extension were scored as protected (Kokate et al., 1994).
The mouse maximal electroshock (MES) and 6 Hz seizure models were used. Motor toxicity was assessed using a modification of the horizontal screen test. ED50 values in the seizure models and TD50 values in the toxicity test were determined by nonlinear fitting of dose-response curves. […] Drugs solutions were injected intraperitoneally 10 min prior to administration of the electrical stimulus in a volume of 10 ml/kg body weight.

For test [2], the system named is 6-Hz psychomotor seizures. Briefly: 6-Hz psychomotor seizure test (ASP). In kind it is in vivo, mice. Conditions: Mus musculus, po, orally administered. How it is done: Seizures characterized by a minimal clonic phase followed by stereotyped automatistic behaviors (jaw chomping and whisker movement) were induced in mice by a low frequency (6 Hz), long-duration (3 s) stimulus. These seizures resemble automatistic behavior in patients with complex partial seizures. At varying times (0.25, 0.5, 1, 2, and 4 h) after drug treatment, individual mice (four at each time point) were challenged with sufficient current (32 or 44 mA at 6 Hz for 3 s) delivered through corneal electrodes to elicit a psychomotor seizure. Animals not displaying this behavior are considered protected.

Test [3] relates to pentylenetetrazole-induced seizures. Briefly: Subcutaneous Metrazol seizure test (scMET). The conditions noted are these: mouse, in vivo. The format is in vivo. How it is done:
A dose of subcutaneous pentylenetetrazole (Metrazole, MET) which induces convulsions in 97% of animals (CD97: 85 mg/kg mice or 56.4 mg/kg rats) was injected into a loose fold of skin at the neck. Animals were placed in isolation cages and observed for 30 min for the occurrence of clonic spasms persisting for at least 5 s.

Test [4] deals with MES-induced seizures. The test is described as follows: Maximal electroshock (MES) seizure test, mice (ASP, methylcellulose suspension). The format is in vivo. The conditions noted are these: Mus musculus, ip; mice, i.p., methylcellulose suspension, time of peak effect (SKA-19: 2 h); read-out: ED50, seizure protection in the MES test. How it is done: (§1) SKA-19 was tested under the auspices of the National Institutes of Health's Anticonvulsant Screening Program (ASP). Experiments were performed in male albino CF (Carworth Farms) No. 1 mice or Sprague-Dawley rats according to the established protocols of the ASP (White et al., 2002). SKA-19 was suspended in 0.5% methylcellulose and administered in a volume that permits accuracy of dosage without excessively contributing to total body fluid (0.01 ml/g body weight for mice and 0.04 ml/10 g body weight for rats).
(§2) Animals received an electrical stimulus of 0.2 s duration (50 mA in mice and 150 mA in rat at 60 Hz) delivered via corneal electrodes primed with an electrolyte solution containing 0.5% tetracaine. Animals were restrained by hand and released immediately after stimulation to permit observation of the seizure throughout its entire course. In the initial screens to identify anticonvulsant activity mice were tested at 30 minutes and 4 hours following doses of 3, 10, 30, 100 and 300 mg/kg of SKA-19 and rats tested at time intervals between 0.25 and 4 hours following a standard oral dose of 30 mg/kg. In the subsequent, more quantitative tests at least four doses of SKA-19 (n=8 per dose) were tested at the previously determined time of peak effect (TPE). Abolition of hindlimb tonic extension indicates the test compound's ability to inhibit MES-induced seizure spread. Tonic extension is considered abolished if the hind limbs are not fully extended at 180° with the body.
(The maximal electroshock test induces tonic seizures with an electrical stimulus.)

In test [5] the test system is MES-induced seizures. Briefly: Maximal electroshock (MES) seizure test, rats (ASP, methylcellulose suspension). In kind it is in vivo. How it is done:
as §1, §2

In the next test the test system is CA1 pyramidal neurons. The test is described as follows: Hippocampal slice recordings. In kind it is cell-based, mouse. The conditions noted are these: 10 μM, 1-s current injections (150 pA). How it is done: Brain slice preparation was approved by the University of California, Irvine, Institutional Animal Care and Use Committee. Male C57BL/6 J mice (postnatal day 23) were anesthetized with halothane, decapitated, and brains transferred to an ice-cold, sucrose artificial cerebral spinal fluid (ACSF; Sigma-Aldrich). Hippocampal slices (300 μm) were prepared using a Leica VT1200S vibrating blade microtome (Leica Microsystems Inc., Buffalo Grove, Ill.). Slices were incubated at 33° C. in oxygenated (95% O2, 5% CO2) standard ACSF containing the following (mM) for at least 1 h before recordings: 126 NaCl, 2.5 KCl, 1.25 NaHPO4, 1.2 MgSO4, 10 glucose, 1.2 CaCl2, and 26 NaHCO3. Slices were submerged and continuously perfused at 2 ml/min with oxygenated ACSF at 33° C. during the current-clamp experiments. Voltage-clamp experiments were performed in the same ACSF but with 1 mM tetraethylammonium chloride (Sigma-Aldrich) and 0.5 μM tetrodotoxin (Sigma-Aldrich) added. Pyramidal CA1 neurons were visualized and identified with an upright microscope (Zeiss Axioskop Plus; Zeiss Jena, Germany) with infrared differential interference contrast optics. Recording pipettes (2-5 MΩ) were filled with intracellular solution containing (in mM): 126 K-gluconate; 4 KCl; 10 HEPES; 2 Mg-adenosine triphosphate; 0.3 Tris-guanosine triphosphate; 10 phosphocreatine, pH 7.20, 270-290 mOsm. In the current-clamp mode, depolarizing current pulses were applied from a membrane potential of −65 mV to evoke tonic firing activity. In the voltage-clamp mode, neurons were held at −55 mV and KCa currents elicited by 50-ms voltage steps to 10 mV, applied every 10 s. SKA-19 or NS309 were perfused for 10 min into the bath to allow for equilibrium. Recordings were performed in the whole-cell mode using a MultiClamp 700B amplifier (Molecular Devices), […] and sampled at 20 kHz with a Digidata 1322A digitizer (Molecular Devices). Data were acquired and analyzed with pClamp 10.2 software (Molecular Devices).

As a reminder, the ED50 is the dose at which the effect has come halfway, by size or by number of responders.

Molecule `Nc1nc2ccc(OC(F)(F)F)cc2s1` [riluzole, 2-amino-6-(trifluoromethoxy)benzothiazole, reference compound] had a duration of protection in the test with MES-induced seizures [1] (10 mg/kg i.p. as solution) of at most 45 min. In addition, the “duration of protective activity” value with MES-induced seizures [1] (MES test, 10 mg/kg i.p. as solution) was under 1 h. Moreover, the 50% effective dose (ED50) in the test on MES-induced seizures [1] (Mus musculus, ip, 10 min, i.p. as solution, 10 min time point, read-out: ED50, seizure protection in the MES test) was 5.37 mg/kg; in test [2] (32 mA, 0.5-h time point), 10.1 mg/kg; in test [2] (44 mA, 1-h time point) it was 11.5 mg/kg; with MES-induced seizures [4], 4.07 mg/kg; in the test with MES-induced seizures [5] (Rattus norvegicus, oral (SKA-19: 4 h time point), read-out: ED50, seizure protection in the MES test), 2.64 mg/kg. Also, in the test with MES-induced seizures [1] (i.p. as solution), the “onset of protection from seizures after application” value was at most 5 min. The “activity in the scMET test” value in test [3] is recorded as “no significant activity”. Besides, the “protection from MES induced seizures, initial screen” value in the test with MES-induced seizures [5] (30 mg/kg i.p.) is recorded as “completely protected”.
Take NS309 [reference compound]: the “termination of firing during the ongoing current train” value with CA1 pyramidal neurons is reported as “did not terminate firing”. The “effect on AP firing frequency” value in the test on CA1 pyramidal neurons (holding potential -65 mV) was “reduced AP firing frequency”.
